Data taken from patent US12110286B2, “Benzimidazolone derived inhibitors of BCL6” (Cancer Research Technology Limited, priority 2017, dated 2024).
Where two headings read alike, the source gives them in different places.

Tests used:
[1] = target: BCL6-NCOR2(SMRT) corepressor protein-protein interaction (Homo sapiens (Human), UniProt P41182); test: NanoBRET cell assay; format: cell-based; settings: transfected HEK293T cells, 6 hr; for IC50: read-out: NanoBRET cell pIC50 (converted)
Protocol: A cellular nano-Bioluminescence Resonance Energy Transfer (nanoBRET) assay (Promega NanoBRET Nano-Glo Detection System, catalogue number N1662) was used to detect inhibition of the BCL6-NCOR2(SMRT) corepressor protein-protein interaction. DNA encoding full length BCL6 and NCOR2 were inserted into pFC32K.NanoLuc and pFC14K.HaloTag vectors (Promega) to produce C-terminal tagged fusion proteins BCL6-nanoLuc and NCOR2-HaloTag, respectively. HEK293T cells were plated (5×10^5) in T75 tissue culture flask and bulk transfected 48 hours later with Fugene 6 (Promega cat. #E2691) reagent and 18 μg total DNA plasmids encoding BCL6-nanoLuc as donor and NCOR2-HaloTag as acceptor, at a donor:acceptor DNA ratio of 1:25. At 24 hr post-transfection, HEK293T cells were collected and stored in liquid nitrogen in 90% FBS (PAN Biotech UK) and 10% DMSO. […] Frozen transfected HEK293T cells were thawed, centrifuged and freezing medium was replaced by phenol red-free OptiMEM+4% FBS (Life Technology). […] Cells were incubated for 6 hr at 37° C./5% C02 then NanoBRET furimazine substrate (Promega) was added to give a final concentration of 10 μM. After a short centrifugation the plates were read on an Envision (Perkin Elmer) plate reader equipped with a LUM/D600 Dual mirror, Lum 450/40 nm bandpass and D605 nm longpass filters, with a 0.2 sec reading to determine the BRET ratio. The % inhibition at each test concentration was calculated by normalising the BRET ratio to the appropriate high and low controls.

[2] = target: Trx-6×His-BCL6 (human BCL6 BTB domain covering amino-acid sequence 5-129) (Homo sapiens (Human), UniProt P41182); test: HTRF in vitro assay (BCL6 / BCOR-AF633 peptide); format: binding; settings: for IC50: read-out: HTRF pIC50 (converted)
Protocol: The % inhibition at each concentration was calculated by normalising FRET ratio to the appropriate high (DMSO with all reagents) and low (DMSO without BCL6) controls.

[3] = further generated data, 1 nM Trx-6×His-BCL6, 300 nM BCOR-AF633 peptide, 0.5 nM anti-6×His-Terbium cryptate
[4] = initially generated data, 10 nM Trx-6×His-BCL6, 300 nM BCOR-AF633 peptide, 1 nM anti-6×His-Terbium cryptate

Compound | HTRF pIC50 [2, 3] | IC50 ([1]; further generated data) | also measured
CNC(=O)c1cc(Nc2ccc3c(c2)n(CCC(C)(C)O)c(=O)n3C)c(C#N)c(Cl)n1 [Example 1a, 6-Chloro-5-cyano-4-[[3-(3-hydroxy-3-methyl-butyl)-1-methyl-2-oxo-benzimidazol-5-yl]amino]-N-methyl-pyridine-2-carboxamide] | 6.22 | – | NanoBRET cell pIC50 ([1]; further generated data): 5.45; IC50 ([1]; initially generated data): 3.55 µM; HTRF pIC50 [2, 4]: 6.48
Cc1cc(Nc2ccc3c(c2)n(CCC(C)(C)O)c(=O)n3C)c(C#N)c(Cl)n1 [Example 1b, 2-chloro-4-[[3-(3-hydroxy-3-methyl-butyl)-1-methyl-2-oxo-benzimidazol-5-yl]amino]-6-methyl-pyridine-3-carbonitrile] | – | – | NanoBRET cell pIC50 ([1]; further generated data): 5.28; IC50 ([1]; initially generated data): 5.25 µM; HTRF pIC50 [2, 4]: 6.09
CNC(=O)c1cc(Nc2ccc3c(c2)n(CC[C@@H](C)O)c(=O)n3C)c(C#N)c(Cl)n1 [Example 4, 6-Chloro-5-cyano-4-[[3-[(3R)-3-hydroxybutyl]-1-methyl-2-oxo-benzimidazol-5-yl]amino]-N-methyl-pyridine-2-carboxamide] | 5.79 | – | NanoBRET cell pIC50 ([1]; further generated data): 5.20; IC50 ([1]; initially generated data): 6.31 µM; HTRF pIC50 [2, 4]: 5.99
Cc1cc(C)n(-c2ncc(Cl)c(Nc3ccc4c(c3)n(CCC(C)(C)O)c(=O)n4C)n2)n1 [Example 15a, 5-[[5-Chloro-2-(3,5-dimethylpyrazol-1-yl)pyrimidin-4-yl]amino]-3-(3-hydroxy-3-methyl-butyl)-1-methyl-benzimidazol-2-one] | 6.61 | 1.78 µM | IC50 ([1]; initially generated data): 2.04 µM; HTRF pIC50 [2, 4]: 6.56
CCOC(=O)c1c(C)nn(-c2ncc(Cl)c(Nc3ccc4c(c3)n(CCC(C)(C)O)c(=O)n4C)n2)c1C [Example 15c] | 6.22 | 2.04 µM | –
Cn1c(=O)n(CCC(C)(C)O)c2cc(Nc3nc(-n4ccc(C(F)(F)F)n4)ncc3Cl)ccc21 [Example 15d] | 6.41 | 1.29 µM | –
COCC(C)(O)CCn1c(=O)n(C)c2ccc(Nc3nc(N4CCC(C(=O)N(C)C)CC4)ncc3Cl)cc21 (centres unmarked) [Example 15i] | 6.75 | 2.19 µM | –
CCC(C)(O)CCn1c(=O)n(C)c2ccc(Nc3nc(N4CCC(C(=O)N(C)C)CC4)ncc3Cl)cc21 (centres unmarked) [Example 15l] | 6.63 | 1.32 µM | –
Cc1nn(-c2ncc(Cl)c(Nc3ccc4c(c3)n(CCC(C)(C)O)c(=O)n4C)n2)c(C)c1Cl [Example 15n] | 6.35 | 1.82 µM | –
Cn1c(=O)n(CCC(C)(C)O)c2cc(Nc3nc(-c4n[nH]c5ccccc45)ncc3Cl)ccc21 [Example 17a, 5-((5-chloro-2-(1H-indazol-3-yl)pyrimidin-4-yl)amino)-3-(3-hydroxy-3-methylbutyl)-1-methyl-1,3-dihydro-2H-benzo[d]imidazol-2-one] | – | 1.15 µM | IC50 [2, 3]: 0.537 µM
Cn1c(=O)n(CCC(C)(C)O)c2cc(Nc3nc(-n4ncc5ccccc54)ncc3Cl)ccc21 [Example 17b, 5-((5-chloro-2-(1H-indazol-1-yl)pyrimidin-4-yl)amino)-3-(3-hydroxy-3-methylbutyl)-1-methyl-1,3-dihydro-2H-benzo[d]imidazol-2-one] | 6.21 | 1.91 µM | –
CN(C)C(=O)C1CCN(c2ncc(Cl)c(Nc3ccc4c(c3)n(CCC(C)(C)O)c(=O)n4C)n2)CC1 [Example 20c] | 6.60 | 2.14 µM | –
C[C@@H]1CN(c2ncc(Cl)c(Nc3ccc4c(c3)n(CCC(C)(C)O)c(=O)n4C)n2)C[C@H](C2CC2)O1 [Example 21a, 5-((5-chloro-2-((2S,6R)-2-cyclopropyl-6-methylmorpholino)pyrimidin-4-yl)amino)-3-(3-hydroxy-3-methylbutyl)-1-methyl-1,3-dihydro-2H-benzo[d]imidazol-2-one] | – | 1.35 µM | IC50 [2, 3]: 0.1 µM
C[C@@H]1CN(c2ncc(Cl)c(Nc3ccc4c(c3)n(CCC(C)(C)O)c(=O)n4C)n2)C[C@@H](C2CC2)O1 [Example 21b, 5-((5-chloro-2-((2R,6R)-2-cyclopropyl-6-methylmorpholino)pyrimidin-4-yl)amino)-3-(3-hydroxy-3-methylbutyl)-1-methyl-1,3-dihydro-2H-benzo[d]imidazol-2-one] | 7.01 | 1.38 µM | –
Cn1c(=O)n(CCC(C)(C)O)c2cc(Nc3nc(N4CCCC(CO)C4)ncc3Cl)ccc21 (centres unmarked) [Example 42g, 5-((5-chloro-2-(3-(hydroxymethyl)piperidin-1-yl)pyrimidin-4-yl)amino)-3-(3-hydroxy-3-methylbutyl)-1-methyl-1,3-dihydro-2H-benzo[d]imidazol-2-one] | 6.92 | – | –
Cn1c(=O)n(CC2CCCN(C(=O)OC(C)(C)C)C2)c2cc(Nc3ccnc(Cl)c3C#N)ccc21 (centres unmarked) [tert-butyl 3-((6-((2-chloro-3-cyanopyridin-4-yl)amino)-3-methyl-2-oxo-2,3-dihydro-1H-benzo[d]imidazol-1-yl)methyl)piperidine-1-carboxylate] | – | – | activity in the HTRF assay ([2]; result in words): did not exhibit the desired activity

Second part, led by results:

HTRF pIC50 [2, 3] | IC50 ([1]; further generated data) | Compound | also measured
6.55 | 2.19 µM | Cn1c(=O)n(CCC(C)(C)O)c2cc(Nc3nc(N4CCOC(C(F)(F)F)C4)ncc3Cl)ccc21 (centres unmarked) [Example 28b, 5-((5-chloro-2-(2-(trifluoromethyl)morpholino)pyrimidin-4-yl)amino)-3-(3-hydroxy-3-methylbutyl)-1-methyl-1,3-dihydro-2H-benzo[d]imidazol-2-one] | –
6.46 | – | Cn1c(=O)n(CCC(C)(C)O)c2cc(Nc3nc(N4CCCC(C#N)C4)ncc3Cl)ccc21 (centres unmarked) [Example 42b, 1-(5-chloro-4-((3-(3-hydroxy-3-methylbutyl)-1-methyl-2-oxo-2,3-dihydro-1H-benzo[d]imidazol-5-yl)amino)pyrimidin-2-yl)piperidine-3-carbonitrile] | –
6.56 | – | Cn1c(=O)n(CCC(C)(C)O)c2cc(Nc3nc(N4CCC(CN5CCOCC5)CC4)ncc3Cl)ccc21 [Example 42c, 5-((5-chloro-2-(4-(morpholinomethyl)piperidin-1-yl)pyrimidin-4-yl)amino)-3-(3-hydroxy-3-methylbutyl)-1-methyl-1,3-dihydro-2H-benzo[d]imidazol-2-one] | –
6.54 | – | Cn1c(=O)n(CCC(C)(C)O)c2cc(Nc3nc(N4CCCC(CN5CCOCC5)C4)ncc3Cl)ccc21 (centres unmarked) [Example 42d, 5-((5-chloro-2-(3-(morpholinomethyl)piperidin-1-yl)pyrimidin-4-yl)amino)-3-(3-hydroxy-3-methylbutyl)-1-methyl-1,3-dihydro-2H-benzo[d]imidazol-2-one] | –
6.68 | – | Cn1cc2c(n1)CN(c1ncc(Cl)c(Nc3ccc4c(c3)n(CCC(C)(C)O)c(=O)n4C)n1)CC2 [Example 42e, 5-((5-chloro-2-(2-methyl-2,4,5,7-tetrahydro-6H-pyrazolo[3,4-c]pyridin-6-yl)pyrimidin-4-yl)amino)-3-(3-hydroxy-3-methylbutyl)-1-methyl-1,3-dihydro-2H-benzo[d]imidazol-2-one] | –
6.58 | – | Cn1ncc2c1CN(c1ncc(Cl)c(Nc3ccc4c(c3)n(CCC(C)(C)O)c(=O)n4C)n1)CC2 [Example 42f, 5-((5-chloro-2-(1-methyl-1,4,5,7-tetrahydro-6H-pyrazolo[3,4-c]pyridin-6-yl)pyrimidin-4-yl)amino)-3-(3-hydroxy-3-methylbutyl)-1-methyl-1,3-dihydro-2H-benzo[d]imidazol-2-one] | –
6.88 | – | Cn1c(=O)n(CCC(C)(C)O)c2cc(Nc3nc(N4CCC(N5CCOCC5)CC4)ncc3Cl)ccc21 [Example 42h, 5-((5-chloro-2-(4-morpholinopiperidin-1-yl)pyrimidin-4-yl)amino)-3-(3-hydroxy-3-methylbutyl)-1-methyl-1,3-dihydro-2H-benzo[d]imidazol-2-one] | –
6.85 | – | Cn1c(=O)n(CCC(C)(C)O)c2cc(Nc3nc(N4CCC(n5cccn5)CC4)ncc3Cl)ccc21 [Example 42i, 5-((2-(4-(1H-pyrazol-1-yl)piperidin-1-yl)-5-chloropyrimidin-4-yl)amino)-3-(3-hydroxy-3-methylbutyl)-1-methyl-1,3-dihydro-2H-benzo[d]imidazol-2-one] | –
6.81 | – | Cn1c(=O)n(CCC(C)(C)O)c2cc(Nc3nc(N4CCOC(CO)C4)ncc3Cl)ccc21 (centres unmarked) [Example 42j, 5-((5-chloro-2-(2-(hydroxymethyl)morpholino)pyrimidin-4-yl)amino)-3-(3-hydroxy-3-methylbutyl)-1-methyl-1,3-dihydro-2H-benzo[d]imidazol-2-one] | –
